Assay results reported in patent publication US20230167103A1 (Bayer Aktiengesellschaft, priority 2020, published 2023).

molecular target: T1, human DGKζ (Homo sapiens, UniProt Q13574); assay: Human DGKζ kinase activity inhibition assay (ADP-Glo); format: biochemical; details: example compounds; recombinant full-length human DGKζ, 1,2-dioleoyl-sn-glycerol 7 μM, ATP 55 μM, 20 min at 22° C.; read-out: IC50 values of examples in in vitro human DGKζ kinase activity inhibition assays
T1 construct: made in house; host or cells: Sf9 insect cells, baculovirus
How it was run: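 Enzyme was C-terminally FLAG-tagged full-length human DGKζ from baculovirus-infected insect cells, typically about 0.1 nM, with 1,2-dioleoyl-sn-glycerol in octyl-β-D-glucopyranoside micelles as substrate. ADP formed was detected by ADP-Glo luminescence; data normalised to no-inhibitor (0%) and no-enzyme (100%) controls.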

T1 sequence (Q13574 with tags, fused parts or gaps): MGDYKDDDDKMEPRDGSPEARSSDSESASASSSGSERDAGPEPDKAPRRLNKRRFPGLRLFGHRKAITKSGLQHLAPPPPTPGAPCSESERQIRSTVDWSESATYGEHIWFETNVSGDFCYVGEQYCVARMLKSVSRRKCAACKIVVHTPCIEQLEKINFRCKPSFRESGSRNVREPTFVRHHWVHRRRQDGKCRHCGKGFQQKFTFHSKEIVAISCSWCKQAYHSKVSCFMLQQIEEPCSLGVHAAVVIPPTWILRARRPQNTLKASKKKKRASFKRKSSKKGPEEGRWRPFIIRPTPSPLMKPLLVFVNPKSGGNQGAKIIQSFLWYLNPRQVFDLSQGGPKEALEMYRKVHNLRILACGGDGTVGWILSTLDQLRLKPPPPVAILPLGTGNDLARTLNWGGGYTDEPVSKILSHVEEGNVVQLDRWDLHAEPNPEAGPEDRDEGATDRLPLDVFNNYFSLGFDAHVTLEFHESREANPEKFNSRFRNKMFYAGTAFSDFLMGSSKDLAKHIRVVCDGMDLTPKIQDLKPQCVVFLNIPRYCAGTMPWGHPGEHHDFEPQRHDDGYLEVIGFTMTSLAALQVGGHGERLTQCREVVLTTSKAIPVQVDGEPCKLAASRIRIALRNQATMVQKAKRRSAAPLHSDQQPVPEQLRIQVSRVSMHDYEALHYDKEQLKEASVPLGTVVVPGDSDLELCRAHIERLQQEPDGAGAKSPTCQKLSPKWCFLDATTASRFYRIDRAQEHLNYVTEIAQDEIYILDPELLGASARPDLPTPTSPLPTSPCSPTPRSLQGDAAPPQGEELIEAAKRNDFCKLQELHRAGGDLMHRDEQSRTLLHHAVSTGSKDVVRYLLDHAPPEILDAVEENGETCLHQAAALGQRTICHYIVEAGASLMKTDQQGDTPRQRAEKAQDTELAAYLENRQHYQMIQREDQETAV

Point of comparison: `CC(C(N)=O)N(c1ccc(F)c(F)c1)c1nc(N)c(C(=O)c2cc(C(=O)NC3CCCC3)no2)s1` (single isomer, unassigned) [Example 46.2, 5-[4-amino-2-(N-(2-amino-1-methyl-2-oxo-ethyl)-3,4-difluoro-anilino)thiazole-5-carbonyl]-N-cyclopentyl-isoxazole-3-carboxamide], IC50 2280 nM. Against it:
- CC(C(N)=O)N(c1ccc(F)cc1)c1nc(N)c(C(=O)c2cc(CN3CC(F)C3)no2)s1 (racemic) [Example 73, rac-2-(N-[4-amino-5-[3-[(3-fluoroazetidin-1-yl)methyl]isoxazole-5-carbonyl]thiazol-2-yl]-4-fluoro-anilino)propanamide] — 7-fold lower, 325 nM
- CC(C(N)=O)N(c1ccc(F)cc1)c1nc(N)c(C(=O)c2cc(CN3CC(F)(F)C3)no2)s1 (racemic) [Example 74, rac-2-(N-[4-amino-5-[3-[(3,3-difluoroazetidin-1-yl)methyl]isoxazole-5-carbonyl]thiazol-2-yl]-4-fluoro-anilino)propanamide] — 20-fold lower, 113 nM
- CC(C(N)=O)N(c1ccc(F)cc1)c1nc(N)c(C(=O)c2cc(CN3CCC(F)(F)CC3)no2)s1 (racemic) [Example 75, rac-2-(N-[4-amino-5-[3-[(4,4-difluoro-1-piperidyl)methyl]isoxazole-5-carbonyl]thiazol-2-yl]-4-fluoro-anilino)propanamide] — 88-fold lower, 26 nM
- CC(C(N)=O)N(c1ccc(F)cc1)c1nc(N)c(C(=O)c2cc(OC3CCC3)no2)s1 (racemic) [Example 79, rac-2-(N-[4-amino-5-[3-(cyclobutoxy)isoxazole-5-carbonyl]thiazol-2-yl]-4-fluoro-anilino)propanamide] — 26-fold lower, 88 nM
- CC(C(N)=O)N(c1ccc(F)cc1)c1nc(N)c(C(=O)c2cc(OCC3CCC3)no2)s1 (racemic) [Example 80, rac-2-(N-[4-amino-5-[3-(cyclobutylmethoxy)isoxazole-5-carbonyl]thiazol-2-yl]-4-fluoro-anilino)propanamide] — 74-fold lower, 31 nM
- CC(C(N)=O)N(c1ccc(F)cc1)c1nc(N)c(C(=O)c2cc(OC3CCC(F)(F)CC3)no2)s1 (racemic) [Example 81, rac-2-(N-[4-Amino-5-[3-(4,4-difluorocyclohexoxy)isoxazole-5-carbonyl]thiazol-2-yl]-4-fluoro-anilino)propanamide] — 130-fold lower, 17 nM
- CC(C)Oc1cc(C(=O)c2sc(N(c3ccc(F)cc3)C(C)C(N)=O)nc2N)on1 (racemic) [Example 82, rac-2-(N-[4-amino-5-(3-isopropoxyisoxazole-5-carbonyl)thiazol-2-yl]-4-fluoro-anilino)propanamide] — 47-fold lower, 49 nM
- CC(C(N)=O)N(c1ccc(F)cc1)c1nc(N)c(C(=O)c2cc(-c3ccccc3)no2)s1 (single isomer, unassigned) [Example 3.2, 2-(N-[4-amino-5-(3-phenylisoxazole-5-carbonyl)thiazol-2-yl]-4-fluoro-anilino)propanamide] — within 1.5-fold, 1750 nM
- CC(C(N)=O)N(c1ccc(F)cc1)c1nc(N)c(C(=O)c2cc(Br)no2)s1 (single isomer, unassigned) [Example 6.1, 2-(N-[4-amino-5-(3-bromoisoxazole-5-carbonyl)thiazol-2-yl]-4-fluoro-anilino)propanamide] — 36-fold lower, 64 nM
- CC(C(N)=O)N(c1ccc(F)cc1)c1nc(N)c(C(=O)c2cc(Br)no2)s1 (single isomer, unassigned) [Example 6.2, 2-(N-[4-amino-5-(3-bromoisoxazole-5-carbonyl)thiazol-2-yl]-4-fluoro-anilino)propanamide] — 1.5-fold higher, 3490 nM
- CC(C(N)=O)N(c1ccc(F)cc1)c1nc(N)c(C(=O)c2cc(C(=O)NC3(C)CCC3)no2)s1 (single isomer, unassigned) [Example 30.1, 5-[4-amino-2-(N-(2-amino-1-methyl-2-oxo-ethyl)-4-fluoro-anilino)thiazole-5-carbonyl]-N-(1-methylcyclobutyl)isoxazole-3-carboxamide] — 79-fold lower, 29 nM
- CC(C(N)=O)N(c1ccc(F)cc1)c1nc(N)c(C(=O)c2cc(C(=O)NC3(C)CCC3)no2)s1 (single isomer, unassigned) [Example 30.2, 5-[4-amino-2-(N-(2-amino-1-methyl-2-oxo-ethyl)-4-fluoro-anilino)thiazole-5-carbonyl]-N-(1-methylcyclobutyl)isoxazole-3-carboxamide] — 5.9-fold higher, 13400 nM
- CC(C(N)=O)N(c1ccc(F)cc1)c1nc(N)c(C(=O)c2cc(C(=O)NC3CC(F)(F)C3)no2)s1 (single isomer, unassigned) [Example 32.1, 5-[4-amino-2-(N-(2-amino-1-methyl-2-oxo-ethyl)-4-fluoro-anilino)thiazole-5-carbonyl]-N-(3,3-difluorocyclobutyl)isoxazole-3-carboxamide] — 74-fold lower, 31 nM
- CC(C(N)=O)N(c1ccc(F)cc1)c1nc(N)c(C(=O)c2cc(C(=O)NC3CC(F)(F)C3)no2)s1 (single isomer, unassigned) [Example 32.2, 5-[4-amino-2-(N-(2-amino-1-methyl-2-oxo-ethyl)-4-fluoro-anilino)thiazole-5-carbonyl]-N-(3,3-difluorocyclobutyl)isoxazole-3-carboxamide] — 2.5-fold lower, 897 nM
- CC(C(N)=O)N(c1ccc(F)c(F)c1)c1nc(N)c(C(=O)c2cc(C(=O)NC3(C)CCC3)no2)s1 (single isomer, unassigned) [Example 44.1, 5-[4-amino-2-(N-(2-amino-1-methyl-2-oxo-ethyl)-3,4-difluoro-anilino)thiazole-5-carbonyl]-N-(1-methylcyclobutyl)isoxazole-3-carboxamide] — 120-fold lower, 19 nM
- CC(C(N)=O)N(c1ccc(F)c(F)c1)c1nc(N)c(C(=O)c2cc(C(=O)NC3(C)CCC3)no2)s1 (single isomer, unassigned) [Example 44.2, 5-[4-amino-2-(N-(2-amino-1-methyl-2-oxo-ethyl)-3,4-difluoro-anilino)thiazole-5-carbonyl]-N-(1-methylcyclobutyl)isoxazole-3-carboxamide] — 2-fold higher, 4510 nM
- CC(C(N)=O)N(c1ccc(F)c(F)c1)c1nc(N)c(C(=O)c2cc(C(=O)NC3CC(F)(F)C3)no2)s1 (single isomer, unassigned) [Example 45.1, 5-[4-amino-2-(N-(2-amino-1-methyl-2-oxo-ethyl)-3,4-difluoro-anilino)thiazole-5-carbonyl]-N-(3,3-difluorocyclobutyl)isoxazole-3-carboxamide] — 110-fold lower, 20 nM
- CC(C(N)=O)N(c1ccc(F)c(F)c1)c1nc(N)c(C(=O)c2cc(C(=O)NC3CC(F)(F)C3)no2)s1 (single isomer, unassigned) [Example 45.2, 5-[4-amino-2-(N-(2-amino-1-methyl-2-oxo-ethyl)-3,4-difluoro-anilino)thiazole-5-carbonyl]-N-(3,3-difluorocyclobutyl)isoxazole-3-carboxamide] — 1.8-fold lower, 1270 nM
- CC(C(N)=O)N(c1ccc(F)c(F)c1)c1nc(N)c(C(=O)c2cc(C(=O)NC3CCCC3)no2)s1 (single isomer, unassigned) [Example 46.1, 5-[4-amino-2-(N-(2-amino-1-methyl-2-oxo-ethyl)-3,4-difluoro-anilino)thiazole-5-carbonyl]-N-cyclopentyl-isoxazole-3-carboxamide] — 84-fold lower, 27 nM
- C[C@H](C(N)=O)N(c1ccc(F)cc1)c1nc(N)c(C(=O)c2cc(-c3ccccc3)no2)s1 [Example 3.1, (R)-2-(N-[4-amino-5-(3-phenylisoxazole-5-carbonyl)thiazol-2-yl]-4-fluoro-anilino)propanamide] — 37-fold lower, 61 nM

same assay, conditions: intermediates (comparative, lacking the R2 alkyl-carboxamide group); same assay conditions; read-out: IC50 values of intermediates in in vitro human DGKζ kinase activity inhibition assays

Point of comparison: “rac-5-[4-amino-2-(N-(2-amino-1-methyl-2-oxo-ethyl)-4-fluoro-anilino)thiazole-5-carbonyl]-N-(2-pyridyl)isoxazole-3-carboxamide [Example 28]”, IC50 19400 nM. Against it:
- rac-2-(N-[4-amino-5-[3-(pyrrolidine-1-carbonyl)isoxazole-5-carbonyl]thiazol-2-yl]-4-fluoro-anilino)propanamide [Example 19] — higher, > 20000 nM
- rac-5-[4-amino-2-(N-(2-amino-1-methyl-2-oxo-ethyl)-4-fluoro-anilino)thiazole-5-carbonyl]-N-(1-cyclopropylcyclopropyl)isoxazole-3-carboxamide [Example 24] — higher, > 20000 nM
- rac-5-[4-amino-2-(N-(2-amino-1-methyl-2-oxo-ethyl)-4-fluoro-anilino)thiazole-5-carbonyl]-N-(1-methylcyclobutyl)isoxazole-3-carboxamide [Example 30] — 1.6-fold lower, 12000 nM
